This note sets out measurements from patent US20240067702A1, “LACTAM-MODIFIED P[…]” (DONGBAO PURPLE STAR (HANGZHOU) BIOPHARMACEUTICAL CO., LTD., priority 2020, published 2024).

A short description of data set [1]: Pharmacokinetic evaluation in SD rats. The format is in vivo. Conditions: rat, plasma, 0.048 mg/kg, single SC 0.048 mpk. How it is done: To test the pharmacokinetics of compounds in SD rats in vivo
The pharmacokinetic characteristics of the compounds in rodents after subcutaneous injection were tested according to the standard protocol. In the experiment, the candidate compounds were formulated into clear solutions, and a single subcutaneous injection (SC, 0.048 mpk) was given to the rats. The injection vehicle was citrate buffer (20 mM, pH=7). Whole blood was collected and prepared to obtain plasma. Drug concentration was analyzed by LC-MS/MS method, and pharmacokinetic parameters were calculated by Phoenix WinNonlin software.

A short description of data set [2]: Pharmacokinetic evaluation in cynomolgus monkeys. The class given is in vivo. Particulars: cynomolgus monkey, plasma, 0.02 mg/kg, single SC 0.02 mpk. The procedure:
To test the pharmacokinetics of compounds in cynomolgus monkeys in vivo
The pharmacokinetic characteristics of the compounds in mammals after intravenous injection and subcutaneous injection were tested according to the standard protocol. In the experiment, the candidate compounds were formulated into clear solutions, and a single subcutaneous injection (SC, 0.02 mpk) was given to the cynomolgus monkeys. The vehicle for subcutaneous injection was citrate buffer (20 mM, pH=7). Whole blood was collected and prepared to obtain plasma. Drug concentration was analyzed by LC-MS/MS method, and pharmacokinetic parameters were calculated by Phoenix WinNonlin software.

Data set [3] is described as follows: Plasma stability (PLS) test, human plasma. The class given is in vitro ADME. Particulars: pH 7.4, 37° C., up to 120 min, read-out: PLS (H/M) T1/2, H.
The nature of data set [4]: Kidney homogenate stability (BHS) test. The format is in vitro ADME. Conditions: normal mouse kidney homogenate, 37° C.; read-out: BHS (T1/2 (min)). The procedure: To study the stability of the test compounds in normal mouse kidney homogenate.
1. Before the experiment, the frozen kidney homogenate was thawed in a 37° C. water bath.
2. Test compounds: 10 mM stock solution was diluted with DMSO to prepare 1 mM intermediate solution;
3. test compounds: 1 mM intermediate solution was diluted with DMSO to prepare 50 μM dosing solution;
4. at each time point (0, 10, 30, 60, 120, 180, 240 min), 100 μL of 4% H3PO4 and 800 μL of stop solution were added to precipitate the protein, and mixed thoroughly.
5. The samples were centrifuged at 4000 rpm for 10 min, and 100 μL of supernatant was taken from each well to the plate. The samples were shaken at 800 rpm for approximately 10 min before submitting for LC-MS/MS test.

Setting [5] is: read-out: Half-life T1/2 (converted).

Each structure is given as a SMILES string. *1 amine or outer side, *2 acyl side, *3 side chain or, on linkers, in order; H or OH if unused. Where a SMILES comes first, the peptide text is derived from it. Bridges are numbered along the chain shown (N, C = ends). Side-chain parts run from the residue outwards. [ ]: non-standard residue; d: D form. The star is where a group is joined. C20 diacid = O=C(O)CCCCCCCCCCCCCCCCCCC(=O)*; γGlu = O=C(O)[C@H](CCC(=O)[*:2])N[*:1]; AEEA = NCCOCCOCC(=O)O; Aib = CC(C)(N)C(=O)O

Consider `CC[C@H](C)[C@H](NC(=O)[C@H](CC(C)C)NC(=O)[C@H](Cc1c[nH]c2ccccc12)NC(=O)[C@@H]1CCC(=O)NCCCC[C@H](NC(=O)[C@H](CCC(N)=O)NC(=O)[C@H](C)NC(=O)[C@H](CCCCNC(=O)COCCOCCNC(=O)COCCOCCNC(=O)CC[C@H](NC(=O)CCCCCCCCCCCCCCCCCCC(=O)O)C(=O)O)NC(=O)[C@H](CCCCN)NC(=O)[C@H](CC(=O)O)NC(=O)[C@H](CC(C)C)NC(=O)C(C)(C)NC(=O)[C@@H](NC(=O)[C@H](CO)NC(=O)[C@H](Cc2ccc(O)cc2)NC(=O)[C@H](CC(=O)O)NC(=O)[C@H](CO)NC(=O)[C@@H](NC(=O)[C@H](Cc2ccccc2)NC(=O)[C@@H](NC(=O)CNC(=O)[C@H](CCC(=O)O)NC(=O)C(C)(C)NC(=O)[C@@H](N)Cc2ccc(O)cc2)[C@@H](C)O)[C@@H](C)O)[C@@H](C)CC)C(=O)N[C@@H](C)C(=O)N[C@@H](Cc2ccccc2)C(=O)N[C@@H](C(C)C)C(=O)N1)C(=O)N[C@@H](C)C(=O)NCC(=O)NCC(=O)N1CCC[C@H]1C(=O)N[C@@H](CO)C(=O)N[C@@H](CO)C(=O)NCC(=O)N[C@@H](C)C(=O)N1CCC[C@H]1C(=O)N1CCC[C@H]1C(=O)N1CCC[C@H]1C(=O)N[C@@H](CO)C(N)=O` [WX-001] (H-Y[Aib]EGTFTSDYSI[Aib]LDKK([AEEA-AEEA-γGlu-C20 diacid])AQKAFVEWLIAGGPSSGAPPPS-NH2; lactam 20-24), for which the half-life in data set [1] (setting [5]) is 720 min; in data set [2] (setting [5]), 3.33 days; in data set [4], 14 min. Also, the Cmax in data set [1] (read-out: Maximum Plasma Concentration) is 22 nM; in data set [2], 30 nM. Further, the AUC(0-t) was 0.728 µM·h in data set [1] (read-out: SC Concentration Integral AUC0-72 h) and 3.97 µM·h in data set [2] (read-out: SC Concentration Integral AUC0-240 h). Also, the Tmax in data set [2] came to 21 h. Besides, the half-life at 2 μM in data set [3] was more than 289 min.
